Experimental data from ChEMBL document CHEMBL1201862, “PubChem BioAssay data set” (2004).
Calls of active or inactive are those of the source.

What was measured:
[1] = molecular target: T1, Ubiquitin-conjugating enzyme E2 N (Homo sapiens, UniProt P61088); format: functional;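 further: Dose-response confirmation in a TR-FRET assay detecting UBC13-driven polyubiquitin chain formation, inhibition measured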
T1 sequence (P61088 whole entry): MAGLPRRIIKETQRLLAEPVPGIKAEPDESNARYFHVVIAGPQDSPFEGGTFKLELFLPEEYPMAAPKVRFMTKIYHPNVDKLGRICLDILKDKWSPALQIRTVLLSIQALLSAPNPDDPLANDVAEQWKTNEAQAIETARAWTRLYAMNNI

[2] = molecular target: Luciferin 4-monooxygenase (Photinus pyralis, UniProt P08659); assay: inhibition of purified Photinus pyralis luciferase – biochemical, luminescence, dose response (AID 1891)
[3] = Luminescence Cell-Based Dose Confirmation HTS to Identify Inhibitors of Platelet Dense Granule Release. [Related pubchem assays: 1663 (Primary HTS), 1678 (Summary of Project)]; format: functional
[4] = molecular target: T2, Polyadenylate-binding protein 1 (Homo sapiens, UniProt P11940); assay: MLLE binding blockers, Cy5 peptide tracer – biochemical, fluorescence polarization, Cy5-PAM2 peptide, secondary, miRNA deadenylation inhibitor project, dose response (AID 602260); format: functional; settings: read-out: IC50_Mean
[5] = molecular target: T2, Polyadenylate-binding protein 1; assay: MLLE domain peptide-binding blockers, IC50 – biochemical, fluorescence polarization, FITC-PAM2 peptide, dose response (AID 602259); format: functional; settings: read-out: IC50_Mean
[6] = molecular target: Large T antigen (Simian virus 40, UniProt P03070); format: functional, Betapolyomavirus macacae;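 further: Confirmatory-stage PubChem screen for compounds that inhibit SV40 T antigen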
[7] = Luminescence Cell-Based Dose Retest to Confirm Inhibitors of Cancer Stem Cells. [Related pubchem assays (depositor defined):AID2717, AID2721]; format: functional; settings: Homo sapiens
[8] = blockers of HIV-1 envelope-mediated cell-cell fusion – cherry-pick, dose response (AID 652057); format: functional, cell-based
[9] = test system: INS1; assay: INS-1E survival protection against cytokine death – cell-based, luminescence, retest, dose response (AID 449756); format: functional; settings: Rattus norvegicus;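 further: cell death triggered by IL-1 beta plus TNF-alpha plus IFN-gamma mixture; protective hits raise ATP signal compared with cytokine alone wells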
[10] = reduction of Shn3 3'UTR-driven luciferase in osteoblasts – cell-based, Clone20 osteoblasts, firefly luciferase, cherry-picked, dose response (AID 624132); format: functional;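 further: firefly luciferase luminescence from reporter carrying the Shn3 3'UTR in osteoblasts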
[11] = loss of viability in HepG2 cells – cell-based, CellTiter-Glo, cherry-picked, cytotoxicity control for Shn3 inhibitor project, dose response (AID 624134); format: functional
[12] = non-specific 3'UTR reporter inhibition in Clone20-Shn3RL – cell-based, Renilla luciferase, cherry-picked, counter-screen for Shn3 inhibitor project, dose response (AID 624133); format: functional
[13] = Luminescence Cell-Based Dose Confirmation HTS to Identify Activators of 5'UTR Stem-Loop Driven Alpha-Synuclein mRNA Translation in H4 Neuroglioblastoma Cells. [Related pubchem assays: 1829 (Project Summary), 1814 (Primary HTS)]; format: functional
[14] = Luminescence Cell-Based Dose Response HTS to Identify Activators of Luciferase Translation or Activity in H4 […] Cells. [Related pubchem assays: 1829 (Project Summary), 1814 (Primary HTS)]; format: functional
[15] = test system: H4; assay: Luminescence Cell-Based Dose Response HTS to Identify Activators of 5'UTR Stem-Loop Driven Prion Protein mRNA Translation in H4 Neuroglioblastoma Cells. [Related pubchem assays: 1829 (Project Summary), 1814 (Primary HTS)]; format: functional; settings: Homo sapiens
[16] = molecular target: Cytochrome P450 2D6 (Homo sapiens, UniProt P10635);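 further: CYP2D6 member of a cytochrome P450 panel assay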
[17] = molecular target: Cytochrome P450 2C9 (Homo sapiens, UniProt P11712)
[18] = molecular target: Nonstructural protein 1 (Influenza A virus, UniProt Q194T2); format: functional, Influenza A virus (A/California/07/2009(H1N1))
[19] = test system: H9c2; assay: cells; format: functional, cell-based; settings: Rattus norvegicus, H9c2, Myocardium;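 further: confirmatory concentration-response retest of ultra-high-throughput screening hits for modulation of myocardial damage; cell death induced by hydrogen peroxide oxidative stress; compound pretreatment for 60 min then peroxide exposure for 2 h; potency is for protecting the cells against peroxide damage rather than for killing them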
[20] = viability of uninfected HEp-2 cells – cell-based, HTS, cytotoxicity control for RSV inhibitor project, dose response (AID 2410); format: functional; settings: human respiratory syncytial virus

Luciferin 4-monooxygenase, sequence (P08659 whole entry): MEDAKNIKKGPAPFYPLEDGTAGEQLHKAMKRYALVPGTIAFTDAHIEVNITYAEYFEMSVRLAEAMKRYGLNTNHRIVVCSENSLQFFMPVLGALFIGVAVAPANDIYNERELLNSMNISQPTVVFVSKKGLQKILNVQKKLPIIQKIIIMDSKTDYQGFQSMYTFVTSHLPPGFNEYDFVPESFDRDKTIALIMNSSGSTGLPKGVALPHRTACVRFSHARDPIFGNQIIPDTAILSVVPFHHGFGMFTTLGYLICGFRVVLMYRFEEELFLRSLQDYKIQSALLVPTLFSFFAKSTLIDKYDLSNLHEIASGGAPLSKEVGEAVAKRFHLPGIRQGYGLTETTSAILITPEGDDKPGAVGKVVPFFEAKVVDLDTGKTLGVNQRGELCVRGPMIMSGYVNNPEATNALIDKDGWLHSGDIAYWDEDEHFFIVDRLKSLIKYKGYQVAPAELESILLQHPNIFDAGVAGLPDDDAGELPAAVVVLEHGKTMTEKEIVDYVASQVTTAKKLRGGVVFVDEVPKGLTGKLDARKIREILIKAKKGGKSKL
T2 sequence (P11940 whole entry, the tested form may be a part): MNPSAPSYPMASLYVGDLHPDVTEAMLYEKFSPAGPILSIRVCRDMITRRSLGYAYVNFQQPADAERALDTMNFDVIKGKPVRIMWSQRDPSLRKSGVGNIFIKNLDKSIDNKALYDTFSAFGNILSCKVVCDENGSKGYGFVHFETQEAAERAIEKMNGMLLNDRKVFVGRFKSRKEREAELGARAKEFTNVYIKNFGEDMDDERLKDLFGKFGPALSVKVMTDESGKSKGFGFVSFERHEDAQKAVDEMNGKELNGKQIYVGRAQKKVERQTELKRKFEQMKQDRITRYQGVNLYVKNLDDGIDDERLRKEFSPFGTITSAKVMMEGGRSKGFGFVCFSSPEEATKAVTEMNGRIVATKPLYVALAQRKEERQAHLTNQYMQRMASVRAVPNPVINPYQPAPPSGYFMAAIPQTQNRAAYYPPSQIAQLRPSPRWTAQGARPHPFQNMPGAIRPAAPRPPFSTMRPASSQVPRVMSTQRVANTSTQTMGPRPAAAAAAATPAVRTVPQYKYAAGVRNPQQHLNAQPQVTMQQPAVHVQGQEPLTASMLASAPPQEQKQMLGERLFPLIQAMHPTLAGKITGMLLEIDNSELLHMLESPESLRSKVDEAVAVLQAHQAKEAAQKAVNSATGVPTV
Nonstructural protein 1, sequence (Q194T2 whole entry): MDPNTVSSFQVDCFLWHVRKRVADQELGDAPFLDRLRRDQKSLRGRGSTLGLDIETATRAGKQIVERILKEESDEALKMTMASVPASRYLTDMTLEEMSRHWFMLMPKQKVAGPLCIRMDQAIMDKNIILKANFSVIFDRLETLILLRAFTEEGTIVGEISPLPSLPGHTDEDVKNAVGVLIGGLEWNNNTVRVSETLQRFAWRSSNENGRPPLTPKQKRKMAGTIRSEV
Cytochrome P450 2D6, sequence (P10635 whole entry): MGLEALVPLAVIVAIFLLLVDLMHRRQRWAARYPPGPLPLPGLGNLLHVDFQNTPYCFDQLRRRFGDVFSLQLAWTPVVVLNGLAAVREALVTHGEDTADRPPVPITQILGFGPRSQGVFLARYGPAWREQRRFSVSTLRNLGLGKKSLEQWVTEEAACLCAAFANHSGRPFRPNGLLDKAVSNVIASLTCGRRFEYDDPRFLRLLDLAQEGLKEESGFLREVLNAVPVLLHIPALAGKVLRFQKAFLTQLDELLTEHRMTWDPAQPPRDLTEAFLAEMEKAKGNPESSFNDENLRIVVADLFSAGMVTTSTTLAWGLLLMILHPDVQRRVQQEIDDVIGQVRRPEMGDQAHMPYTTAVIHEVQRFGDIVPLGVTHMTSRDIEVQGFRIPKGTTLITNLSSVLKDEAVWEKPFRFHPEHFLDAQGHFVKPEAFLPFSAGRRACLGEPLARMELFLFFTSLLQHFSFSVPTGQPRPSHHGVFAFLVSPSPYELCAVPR
Cytochrome P450 2C9, sequence (P11712 whole entry): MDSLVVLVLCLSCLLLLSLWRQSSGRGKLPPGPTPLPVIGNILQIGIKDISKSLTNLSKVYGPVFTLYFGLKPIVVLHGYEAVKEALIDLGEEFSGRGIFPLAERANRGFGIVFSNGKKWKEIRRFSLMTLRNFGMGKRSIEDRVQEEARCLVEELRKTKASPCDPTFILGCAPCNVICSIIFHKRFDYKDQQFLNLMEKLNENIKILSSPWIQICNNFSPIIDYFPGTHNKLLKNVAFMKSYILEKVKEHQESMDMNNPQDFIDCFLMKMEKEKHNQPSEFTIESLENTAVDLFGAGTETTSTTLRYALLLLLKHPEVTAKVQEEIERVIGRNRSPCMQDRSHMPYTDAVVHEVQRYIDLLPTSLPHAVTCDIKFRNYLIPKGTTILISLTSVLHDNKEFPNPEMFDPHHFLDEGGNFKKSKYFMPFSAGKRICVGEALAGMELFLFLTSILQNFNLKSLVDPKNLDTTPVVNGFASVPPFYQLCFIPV
Large T antigen, sequence (P03070 whole entry): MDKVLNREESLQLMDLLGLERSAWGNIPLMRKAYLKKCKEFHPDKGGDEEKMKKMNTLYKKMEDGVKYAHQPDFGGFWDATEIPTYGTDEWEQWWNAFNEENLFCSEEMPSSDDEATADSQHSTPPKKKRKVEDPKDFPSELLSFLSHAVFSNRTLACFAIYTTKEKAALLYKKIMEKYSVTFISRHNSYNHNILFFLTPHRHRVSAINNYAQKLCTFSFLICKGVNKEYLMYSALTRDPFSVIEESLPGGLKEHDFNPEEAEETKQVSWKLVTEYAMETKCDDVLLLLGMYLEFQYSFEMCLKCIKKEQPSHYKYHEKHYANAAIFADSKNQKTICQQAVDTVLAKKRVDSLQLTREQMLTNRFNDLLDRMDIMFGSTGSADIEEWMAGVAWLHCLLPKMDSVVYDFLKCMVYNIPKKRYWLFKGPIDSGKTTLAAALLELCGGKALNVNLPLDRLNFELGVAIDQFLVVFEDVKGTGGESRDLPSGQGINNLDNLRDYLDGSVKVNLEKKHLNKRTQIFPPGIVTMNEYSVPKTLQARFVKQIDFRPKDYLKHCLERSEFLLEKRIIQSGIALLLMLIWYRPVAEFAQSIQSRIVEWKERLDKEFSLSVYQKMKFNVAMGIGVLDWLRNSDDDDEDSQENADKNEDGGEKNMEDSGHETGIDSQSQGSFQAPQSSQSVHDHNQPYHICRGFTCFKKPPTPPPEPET

SMILES: O=C(CCC(=O)N1CCOc2ccc(Cl)cc21)NCCCN1CCN(c2ccccc2F)CC1
- IC50 [1]: > 20 µM (inactive)

SMILES: COc1ccc(/C=C(/NC(=O)c2ccco2)C(=O)N2CCCCCC2)cc1OC
- EC50 [2]: > 112 µM (not active)
- EC50 [3]: > 112 µM (not active)

SMILES: COC(=O)c1sccc1N=C(S)Nc1cc(C)cc(C)c1
- IC50 [4]: > 66 µM (inactive)
- IC50 [5]: > 66 µM (inactive)

SMILES: O=C(CSC1=NS(=O)(=O)c2ccccc21)Nc1ccccc1
- IC50 [6]: 12.2 µM (active)
- IC50 [1]: > 20 µM (inactive)

SMILES: Cn1c(C(=O)NCCCN2CCN(c3cccc(Cl)c3)CC2)cc2c(=O)n(C)c3ccccc3c21
- IC50 [1]: > 20 µM (inactive)

SMILES: COC(=O)C1=C(C)N(Cc2ccccc2)C(NCCc2c[nH]c3ccccc23)=N[C@H]1c1cccc(F)c1
- AC50 [7]: 6.45 µM (active)
- IC50 [1]: > 20 µM (inactive)

SMILES: CC(=O)c1ccc(NC(=O)c2cc[nH]n2)cc1
- EC50 [2]: 31.4 µM (active)
- EC50 [3]: 7.07 µM (active)

SMILES: CCCc1ccc(Oc2cc(N3CCOCC3)nc(-c3ccccc3)n2)cc1
- EC50 [2]: > 112 µM (not active)
- EC50 [3]: > 112 µM (not active)

SMILES: COn1c(C)c(C(C)=O)c2c3nonc3ccc21
- EC50 [2]: > 112 µM (not active)
- EC50 [3]: > 112 µM (not active)

SMILES: NC(=O)c1ccsc1NC(=O)CSc1nc2ccccc2c(=O)n1CCCO
- IC50 [4]: > 66 µM (inactive)
- IC50 [5]: > 66 µM (inactive)

SMILES: CC1(C(=O)NCc2ccc3c(c2)OCO3)CCN1Cc1csc2ccccc12 (stereo unspecified)
- AC50 [8]: 43 µM (active)

SMILES: CN(C)S(=O)(=O)c1ccc(Oc2ccc(S(=O)(=O)N(C)C)cc2)cc1
- AC50 [9]: 6.33 µM (active)
- AC50 [10]: 3.04 µM (active)
- AC50 [11]: 53.5 µM (active)
- AC50 [12]: 12.1 µM (active)

SMILES: COC(=O)C1=C(NC(=O)c2ccc(C)c(C)c2)CCS1
- EC50 [13]: > 120 µM (not active)
- EC50 [14]: 13.3 µM (active)
- EC50 [15]: 19 µM (active)
- IC50 [4]: > 66 µM (inactive)
- IC50 [5]: > 66 µM (inactive)
- AC50 [16]: 31.6 µM (inconclusive)
- AC50 [17]: 14.1 µM (inconclusive)

SMILES: COc1ccc(N=NC2C(=O)N(c3ccccc3)N=C2C)cc1 (stereo unspecified)
- IC50 [18]: 27.1 µM (active)

SMILES: O=C(CSc1ccc(-c2ccncc2)nn1)c1ccccc1
- IC50 [4]: > 66 µM (inactive)
- IC50 [5]: > 66 µM (inactive)

SMILES: CCOc1ccccc1C(=O)N/N=C/c1cccc2cccnc12
- IC50 [18]: 32.3 µM (active)
- IC50 [19]: 12.4 µM (active)

SMILES: O=C(O)C1C2C=CC(C2)C1C(=O)NCc1ccco1 (stereo unspecified)
- EC50 [2]: > 112 µM (not active)
- EC50 [3]: > 112 µM (not active)

SMILES: COc1ccc(-c2csc(CCn3nc(C)cc3C)n2)cc1OC
- EC50 [2]: > 112 µM (not active)
- EC50 [3]: > 112 µM (not active)

SMILES: O=C(O)CSc1c2ccccc2cc2ccccc12
- IC50 [4]: > 66 µM (inactive)
- IC50 [5]: > 66 µM (inactive)

SMILES: CCOc1cccc2sc(N(CCCN(C)C)C(=O)c3ccc(S(=O)(=O)N(CC)Cc4ccccc4)cc3)nc12
- CC50 [20]: 27.7 µM (active)
- IC50 [1]: > 20 µM (inactive)

SMILES: Cc1ncc(CN2CCC(N3CCC(C(=O)N4CCCC4)CC3)CC2)s1
- EC50 [2]: > 112 µM (not active)
- EC50 [3]: > 112 µM (not active)

SMILES: NCCCC[C@@H]1NC(=O)c2cc([N+](=O)[O-])cc(I)c2SC[C@@H](C(N)=O)NC(=O)[C@H](Cc2ccc(O)cc2)NC1=O
- IC50 [1]: > 20 µM (inactive)
